# Assay results as given in PMC12624573, “The antigen presentation landscape of cytokine-stressed human pancreatic islets” (Cell reports, 2025).
# Tested on: CD4+ T cells from PBMC
# Test: IFN-γ ELISpot, PBMC-derived in vitro expanded CD4+ T cell lines
# Format: cell-based, human
# Design: key to T cell recognition by PBMC from a T1D donor (mark E) / T cell recognition by PBMC from a T1D donor: E: T cell recognition by PBMC from a T1D donor was tested and verified; see Figure 5
# Conditions: DR3/DQ Set Peptides; PBMC T cell lines; responding donors/donors tested
Substance,T1D Donor T cell response,non-T1D Donor T cell response
KQGYQLIEGNQVLHS [compound 20],0/4,0/2
ITSIVKDSSAARNGL [peptide 18],2/4,0/2
IPGYIVDDSVRVEQ [peptide 19],0/4,0/2
VPGNALVVDPRRPFRK [compound 12],1/4,0/2
WRPSLVPASAENVNKA [compound 23],2/4,0/2
LNKSINPDEAVAYGAA [peptide 15],1/4,0/2
TPGNALVVDPKKPFRK [compound 13],3/4,1/2
ETDKEQLTAEAKELRQK [peptide 6],1/4,0/2
IGEETVITVDTKAAGKGK [peptide 14],0/4,0/2
GKRAIILETRQHRLF [peptide 1],0/4,0/2
YYNLEKDVKQFRRKDS [peptide 3],0/4,0/2
DDALVRQDAQDLYEAG [compound 9],0/4,0/2
GSDDWAYDQGIRYS [compound 21],3/4,0/2
NPANPAILSEASAPIPHDG [compound 27],0/4,0/2
AELEDDFKEGYLE [peptide 2],2/4,1/2
VPIDIDKTKVQNIHPVESA [compound 4],0/4,0/2
GREEITYDTPFKREKS [compound 16],3/4,0/2
EDYYVSKSAVVFGG [compound 28],2/4,1/2
IDQINTDLNLERSHA [compound 17],0/4,0/2
FQYIIDNKGIDSDAS [compound 31],1/4,0/2
DLNGDLTATREEF [compound 5],0/4,0/2
RQRYEILTPNSIPK [compound 26],2/4,0/2
APGYLAITKKVAVPY [compound 30],3/4,1/2
ELSAERPLNEQIAEAE [peptide 32],1/4,0/2

# Same assay, conditions: HPAP-DR3 Pool Peptides; PBMC T cell lines; responding donors/donors tested
Substance,T1D Donor T cell response,non-T1D Donor T cell response
IDSLIELSTKLHLPADD [compound 153],0/4,0/4
VPIDIDKTKVQNIHPVESA [compound 152],0/4,0/4
APGYLAITKKVAVPY [compound 151],0/4,1/4
SANLHGGDLVANYPY [compound 155],0/4,0/4
GFPTIYFSPANKKLNPK [compound 154],0/4,0/4

# Same assay, conditions: MHC-II peptides; superscript E on the peptide; G = verified with QBL cells
row,Substance,T cell recognition by PBMC from a T1D donor
1,AVPEEEGPTVVLXPHPSLG [AVPEEEGPTVVLXPHPSLG (X=deamindated N=asp)],"AVPEEEGPTVVLXPHPSLG^E,G (X=deamindated N=asp)"
2,QSIEGGAHEGLQHLGP,QS IEGGAHEGL QHLGP ^ E
3,AVPEEEGPTVVLXPHPSLG [AVPEEEGPTVVLXPHPSLG (X=deamindated N=isoasp)],"AVPEEEGPTVVLXPHPSLG^E,G (X=deamindated N=isoasp)"
4,LNKSINPDEAVAYGAA,LNKS INPDEAVAY GAA ^ E

# Same assay, conditions: MHC-II peptides; tested and verified, see Figure 5
row,Substance,T cell recognition by PBMC from a T1D donor (mark E)
1,WRPSLVPASAENVNKA,WRPS LVPASAENV NKA ^ E
2,KRPAIWIDTGIHSRE,KRPA IWIDTGIHS RE ^ E
3,ITSIVKDSSAARNGL,ITS IVKDSSAAR NGL ^ E
4,QDPELPDKNMFTINRNTGVIS,QDPELPDKNM FTINRNTGV IS ^ E
5,AELEDDFKEGYLE,AE LEDDFKEGY LE ^ E
6,VPGNALVVDPRRPFRK,VPGNA LVVDPRRPF RK ^ E
7,GREEITYDTPFKREKS,GREE ITYDTPFKR EKS ^ E
8,NPAEFVVNTSNAGAG,NPAE FVVNTSNAG AG ^ E
9,NYPSLELDKMAHG,NYPSLELDKMAHG ^ E
10,APGY LAITKKVAV PY,E
11,KARFAKQPAYTLVDR,KAR FAKQPAYTL VDR ^ E
12,RQRYEILTPNSIPK,RQR YEILTPNS IPK ^ E
13,ELSAERPLNEQIAEAE,ELSAERP LNEQIAEAE ^ E
14,TPGNALVVDPKKPFRK,TPGNA LVVDPKKPF RK ^ E
15,EDYYVSKSAVVFGG,ED YYVSKSAVV FGG ^ E

# Same assay, conditions: PTM and unmodified native Pool Peptides (pool PTM 1), long peptides; PBMC T cell lines; responding donors/donors tested
Substance,T1D Donor T cell response,non-T1D Donor T cell response
"SVPHFSDEDKDPE [compound 147, non-modified native peptide, pool PTM DR3]",0/4,0/4
"ELXAERPLNEQIAEAE [144-1, PTM peptide, X=dehydroS=dehydroAla, pool PTM DR3]",0/4,0/4
"ELSAERPLNEQIAEAE [compound 144, non-modified native peptide, pool PTM DR3]",0/4,0/4
"AVPEEEGPTVVLNPHPSLG [peptide 148, non-modified native peptide from CHGA, pool PTM DR3]",0/4,0/4
"SVPHFXDEDKDPE [147-1, PTM peptide, X=phosphoserine, pool PTM DR3]",0/4,0/4
"AEDLQVGQVELGGGPGAGSLQPL [compound 145, non-modified native peptide, pool PTM DR3]",0/4,0/4
"AEDLQVGEVELGGGPGAGSLQPL [145-1, PTM peptide, E=deamidated Q=glutamic acid, pool PTM DR3]",0/4,0/4

# Same assay, conditions: SEC (Secretory) DR3 Peptides Set; PBMC T cell lines; responding donors/donors tested
Substance,T1D Donor T cell response,non-T1D Donor T cell response
"DNMNDNFLEGEEENELTLN [compound 185, secretory hormone eluted peptide, pool SEC DR3]",0/4,0/4
"ELSAERPLNEQIAEAE [compound 186, secretory hormone eluted peptide from SCG3, pool SEC DR3]",0/4,1/4
"DDPDGLHQLDGTPLTAED [compound 189, secretory hormone eluted peptide from SCG3, pool SEC DR3]",0/4,1/4
"RPLNEQIAEAEEED [compound 187, secretory hormone eluted peptide from SCG3, pool SEC DR3]",0/4,1/4
"AAIQDGLAKGENDETVSNT [compound 190, secretory hormone eluted peptide, pool SEC DR3]",0/4,0/4
"SSPLDNKLNVEDVDSTKN [compound 188, secretory hormone eluted peptide from SCG3, pool SEC DR3]",0/4,1/4
"HPQGAWKELDRNY [compound 184, secretory hormone eluted peptide from SCG1, pool SEC DR3]",0/4,1/4
"SQGLVDREKGLSAEPGWQA [compound 180, secretory hormone eluted peptide from CHGA, pool SEC DR3]",0/4,1/4
"GRGGEPRAYFMSDTREE [compound 183, secretory hormone eluted peptide, pool SEC DR3]",0/4,0/4
"GSEEYRAPRPQSEESWDEED [compound 181, secretory hormone eluted peptide, pool SEC DR3]",0/4,1/4

# Same assay, conditions: T1D donors, PBMC-derived lines (Figure 5J)
row,Substance,Number of donors whose CD4 T cells recognized the peptide (IFN-γ ELISpot)
1,AELEDDFKEGYLE [peptide 2],three of the donors
2,GREEITYDTPFKREKS [compound 16],three of the donors
3,APGYLAITKKVAVPY [compound 30],three of the donors

# Same assay, conditions: control donor LSLP-074; frequencies ∼10-fold lower than for T1D-004 (Figures 5E, 5F, S5B)
row,Substance,IFN-γ ELISpot response of expanded CD4+ T cells
1,TPGNALVVDPKKPFRK [compound 13],responded
2,AELEDDFKEGYLE [peptide 2],responded

# Same assay, conditions: control donor LSLP-153; line expanded with megapool HPAP-DR3 + SEC-DR3, tested with individual peptides (Figure S5C)
row,Substance,IFN-γ ELISpot response of expanded CD4 T cells
1,"ELSAERPLNEQIAEAE [compound 186, secretory hormone eluted peptide from SCG3, pool SEC DR3]",IFN-γ responses
2,"DDPDGLHQLDGTPLTAED [compound 189, secretory hormone eluted peptide from SCG3, pool SEC DR3]",IFN-γ responses
3,"RPLNEQIAEAEEED [compound 187, secretory hormone eluted peptide from SCG3, pool SEC DR3]",IFN-γ responses
4,"SSPLDNKLNVEDVDSTKN [compound 188, secretory hormone eluted peptide from SCG3, pool SEC DR3]",IFN-γ responses
5,APGYLAITKKVAVPY [compound 151],positive response
6,"HPQGAWKELDRNY [compound 184, secretory hormone eluted peptide from SCG1, pool SEC DR3]",IFN-γ responses
7,"SQGLVDREKGLSAEPGWQA [compound 180, secretory hormone eluted peptide from CHGA, pool SEC DR3]",IFN-γ responses

# Tested on: islet-derived T cell lines
# Test: Cytokine bead array (IFN-γ, TNF-α, IL-10), combined islet-derived T cell lines from donors with T1D
# Conditions: donor 6579 lines; class II (DR) peptide pools or single peptides; IFNg, TNFa, IL-10 secretion; listed as 148-2
# Protocol: Live pancreas slices (150–200 μm thick) were provided by nPOD. […] Ten slices were digested with 1 mg/mL collagenase-P (Sigma) in PBS at 37°C with shaking with a magnetic stir bar, with tissue dispersal visually monitored. After washing, islets were enriched by hand-picking, and single-islet-derived T-cell lines generated as described[51] with modifications. Single islets were plated in wells of 96 well round bottom plates (CoStar) on irradiated (5000 rads) allogeneic PBMC with AIM-V media (Thermo Fisher Scientific) supplemented with 2 mM L-glutamine, 5 mM HEPES, and 100 U/ml penicillin and 100 μg/mL streptomycin, 0.1 mM each non-essential amino acids, 1 mM sodium pyruvate, and 5% heat-inactivated human male AB serum (Grifols Diagnostic) with 5 μg/mL each of anti-CD3, anti-CD28 (BioLegend), anti-PD-1 (ligand blocking clone EH12.1, BD Biosciences) and anti-Fas (clone SM1/23: Thermo Fisher Scientific) with 20 U/ml IL-2, and 10 ng/mL IL-15 (R&D), and 50 nM mifepristone (Thermo Fisher Scientific). The lymphocytic outgrowth from individual islets was collected, re-plated, allowed to expand with IL-2 and IL-15, and cryopreserved in early passage (P1-P3). For these experiments, 7–10 T cell lines derived from single islets from each donor were combined. Each combined T cell line contained either >60% CD4 or CD8 T cells. […]
row,Substance,islet derived T cell lines response to DR peptide pools or to single peptides
1,AVPEEEGPTVVLXPHPSLG [148–2],"donor 6579 lines positive with IFNg, TNFa and IL-10 secretion"
